According to patent publication US8592603B2, “Synthesis of 2-(4-aminophenyl) benzothiazole derivatives and use thereof” (Kaohsiung Medical University, priority 2011, dated 2013):
Where two headings read alike, the source gives them in different places.

Key:
Format in all cases: cell-based, human
BCC cells [1] = test: Sub-G1 region analysis (PI, flow cytometry); conditions: 4 μM for 4 hours, 1 J/cm^2 UVA, 24 h after irradiation
Experimental: BCC cells were treated with compounds at 4 μM and 1 J/cm^2 UVA. Twenty-four hours after irradiation, cells were harvested by trypsinization and centrifugation. Cell pellets were resuspended in 50% cold ethanol and fixed at −20° C. After fixation, cells were washed once with cold PBS and incubated in 0.5 mL of PBS containing 100 μg/mL RNase A for 20 min at 37° C. Cells were harvested by centrifugation at 400 g for 5 min, and 250 μL of PBS containing 50 μg/mL propidium iodide (PI) was added to the pellet. Thirty minutes later, the DNA contents of 10,000 events were measured by FACSscan flow cytometer (Elite ESP, Beckman Coulter, Brea, Calif.). Histograms were analyzed using Windows Multiple Document Interface software (WinMDI). Cells with DNA content less than that in untreated cells in G0/G1 were considered apoptotic. To investigate the effects of compounds 6 on cell cycle progression of BCC cells, the DNA content of cell nuclei was measured by flow cytometric analysis. […] BCC cells were treated with 4 μM agents for 4 hours followed by 1 J/cm^2 UVA irradiation. Twenty-four hours after irradiation, the PI reagent was used. Approximately 10000 cells from each group were analyzed with the FACScan flow cytometer. The apoptotic effects in 2.2% (control), 6.5% (6a), 13.4% (6b), 29.2% (6c), 24.4% (6d), 6.5% (6e), 35.4% (6f), 13.6% (6g), 13.8% (6h), 14.8% (6i) and 6.4% (6j) of sub-G1 DNA peak were obtained (% represented the percentage of cell counts).

BCC cells [2] = test: Assessment of mitochondrial membrane potential (DiOC6); conditions: dosages equal to or greater than 2 μM, 1 J/cm^2 UVA (FIG. 5B)
Experimental: (§1) (A) 6f-UVA induced ROS generation in BCC cells. Histogram of fluorescence vs cell count in BCC cells with various concentrations of 6f-UVA and stained with DCFH-DA. As a control, ROS was measured in the presence of catalase, a H2O2 scavenger. (B) The ΔΨmt of BCC cells after exposure to 6f-UVA. Cells were treated with 0, 2, and 4 μM Formula 6f for 4 h followed by 1 J/cm2 UVA irradiation, then stained with DiOC6 and analyzed immediately by flow cytometry as described under Materials and Methods. The number in M1 indicates the percentage of cells with reduced ΔΨmt. Approximately 10000 cells from each group were analyzed by flow cytometry. (C) Relative ATP levels were calculated as the percentage of the 0 μM level. Similar results were obtained in three independent experiments. *p<0.05, ** p<0.01 as compared with the control.
BCC cells were cultured in 35-mm dishes and allowed to reach exponential growth for 24 h before treatment. Cells were pretreated with […] Formula 6f for 4 h before 1 J/cm^2 UVA irradiation. The medium was removed and the adherent cells trypsinized. […] The samples were analyzed immediately for fluorescence (FL-1 detector, filter 530/30 nm band pass) on a FACScan flow cytometer (Elite ESP, Beckman Coulter, Brea, Calif.). Histograms were analyzed using Windows Multiple Document interface software (WinMDI).

BCC cells [3] = test: Determination of intracellular ROS level (DCFH-DA); conditions: BCC cells, 6f-UVA, DCFH-DA probe (FIG. 5A)
Experimental: as §1
To evaluate intracellular reactive oxygen species (ROS) levels, 2′,7′-dichlorofluorescein diacetate (DCFH-DA, Molecular Probes) fluorescent dye was used to clarify this issue. The nonpolar DCFH-DA is converted to the polar derivative DCFH by esterases when it is taken up by the cell. DCFH is nonfluorescent but is rapidly oxidized to the highly fluorescent DCF by intracellular H2O2 or nitric oxide. […] The fluorescence of the samples was measured with a flow cytometer. The 2′,7′-dichlorofluorescein (DCF) data were recorded using FL-1 photomultiplier.

BCC cells [4] = test: Cell viability by MTT assay after compound and UVA irradiation; conditions: for viability at 4 µM: Homo sapiens, BCC, light or radiation study, read-out: cell viability compared with untreated controls
Experimental: (A) Dose-response curves for compound 6 ftested against BCC cells. Cells were seeded in a 96-well plate at 2500 cells per well and cultivated overnight until cell attachment. 6f-UVA at the indicated concentration was added into the culture media in triplicate and incubated for 4 h before 1 J/cm2 UVA irradiation. Twenty-four hours after irradiation, the MTT reagent was added into each well. The absorbance is directly proportional to the number of living cells. (B) To clarify whether 6-UVA has more cytotoxicity than either UVA irradiation alone or treatment with 6 alone, cells were cultured with or without 4 μM Formula 6f before different dosage of UVA irradiation. *p<0.05, **p<0.01 as compared with the control.
The method for UVA irradiation was described in the previous study (Kao, C. S.; Yu, H. S. J. Invest. Dermatol. 1992, 98, 734). For UVA irradiation, a specific UVA lamp emitting a peak wavelength of 365 nm with intensity of 0.75 mW/cm^2 (Vilber Lourmat, Moune La Vallee, Cedex, France) was used. The cultured cells were pretreated with different agents at 4 μM or pretreated with various concentrations (0-4 μM) of Formula 6 for 4 h before UVA irradiation. The cultured cells were rinsed with phosphate-buffered saline (PBS) and then irradiated with 1 J/cm^2 UVA in PBS to avoid the formation of medium-derived toxic photoproducts induced by UV exposure. The doses of irradiation were measured using a UVX radiometer (UVP, San Gabriel, Calif., USA). Immediately after phototreatment, PBS was removed and media were added to the cells. All the following experiments were performed three times in triplicate.
Cell viability was assessed by the MTT assay, a mitochondrial function assay based on the ability of viable cells to reduce the redox indicator MTT to insoluble formazan crystals by mitochondrial dehydrogenase. Briefly, cells were seeded in a 96-well plate at the cell density of 2500 cells/well. After an overnight incubation, the cells were treated with compounds at 4 μM and incubated for 24 h. The medium was then discarded and replaced with 10 μL of MTT dye. Plates were incubated at 37° C. for 2 h. The resulting formazan crystals were solubilized in 100 μL DMSO, and the optical density was read at 540 nm with a microplate reader (MRX-II, Dynex technology, Chantilly, Va.).

With `Nc1ccc(-c2nc3ccc(C(F)(F)F)cc3s2)cc1` [Formula 6f, 2-(4-Aminophenyl)-6-trifluoromethylbenzothiazole] the “sub-G1 DNA peak (apoptotic effects, percentage of cell counts)” value (BCC cells [1]) was 35.4%, the “mitochondrial membrane potential (ΔΨmt)” value (BCC cells [2]) was “significant decline” and the “intracellular H2O2 levels” value (BCC cells [3]) was “significantly increased”. The cell survival (BCC cells [4]; BCC cells, 4 μM for 4 h, 1 J/cm^2 UVA, 24 h after exposure (FIG. 3A)) was “below 50%”, the “inhibitory effect on cell viability” value (BCC cells [4]; BCC cells, different concentrations for 4 h, 1 J/cm^2 UVA (FIG. 3A)) was “dependent on drug concentration” and the viability at 4 µM (BCC cells [4]; BCC cells, 0.25 J/cm^2 UVA) was 71%. The viability at 4 µM (BCC cells [4]; BCC cells, 0.5 J/cm^2 UVA) was 65%, the viability at 4 µM (BCC cells [4]; BCC cells, 1 J/cm^2 UVA) was 45% and the “cytotoxicity against BCC cells” value (BCC cells [4]; compound alone, without UVA irradiation (FIG. 3B)) was “does not have cytotoxicity”.
